Source: ChEMBL document CHEMBL4152362, “Discovery of DS-6930, a potent selective PPARγ modulator. Part II: Lead optimization” (Bioorg Med Chem, 2018)
≈ marks a conversion by molar mass, not a printed value. Calls of active or inactive are those of the source. No cut-off for these calls is given here.

Columns and labels:
[1] = target: T1, Peroxisome proliferator-activated receptor alpha (Homo sapiens) (UniProt Q07869); test: Agonist activity at recombinant human GAL4-DBD fused PPARalpha LBD expressed in COS7 cells at 10 uM after 24 hrs by luciferase reporter gene assay relative to 2-(4-tert-Butylphenoxy)-3-[4-[2-[(4-pyridin-2-ylbenzoyl)amino]ethoxy] phenyl]propionic acid; type: cell-based
T1 sequence (whole entry): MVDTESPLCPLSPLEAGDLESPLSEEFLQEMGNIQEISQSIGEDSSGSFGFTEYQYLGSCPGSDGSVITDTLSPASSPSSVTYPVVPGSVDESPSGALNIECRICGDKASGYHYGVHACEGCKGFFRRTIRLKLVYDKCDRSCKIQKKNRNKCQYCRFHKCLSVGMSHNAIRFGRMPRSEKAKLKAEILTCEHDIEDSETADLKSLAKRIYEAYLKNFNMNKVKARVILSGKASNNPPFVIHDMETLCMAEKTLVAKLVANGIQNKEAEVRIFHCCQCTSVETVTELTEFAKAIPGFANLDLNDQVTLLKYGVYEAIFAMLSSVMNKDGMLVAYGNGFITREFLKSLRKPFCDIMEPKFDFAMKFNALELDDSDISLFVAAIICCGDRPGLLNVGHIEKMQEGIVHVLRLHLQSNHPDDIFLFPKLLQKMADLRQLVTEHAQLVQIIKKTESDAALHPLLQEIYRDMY

Rattus norvegicus [2] = test: Toxicity in Zucker diabetic fatty rat assessed as body weight gain at 3 mg/kg, po administered once daily for 14 days relative to control; type: organism-based; settings: in vivo, 336 h
Hepatocyte [3] = test: Cytotoxicity against F344/DuCrlCrlj rat primary hepatocytes assessed as reduction in cell viability at 10 to 100 uM after 24 hrs by LDH release assay; type: cell-based
[4] = Metabolic stability in human liver microsomes after 0.5 hrs; type: ADME, microsome; settings: read-out: Stability
[5] = Volume of distribution at steady state in cynomolgus monkey at 1 mg/kg, iv by LC-MS/MS; type: ADME, organism-based, Macaca fascicularis; settings: in vivo, read-out: Vdss
[6] = Oral bioavailability in cynomolgus monkey at 3 mg/kg by LC-MS/MS; type: ADME, organism-based, Macaca fascicularis; settings: in vivo
[7] = AUC (0 to 24 hrs) in Zucker diabetic fatty rat at 3 mg/kg, po dosed once daily for 14 days and followed by additional administration on day 15; type: ADME, organism-based; set-up: time < 24 hr, dose 3 mg/kg, route oral; settings: in vivo
[8] = Half life in cynomolgus monkey at 3 mg/kg, po by LC-MS/MS; type: ADME, organism-based, Macaca fascicularis; settings: in vivo
Rattus norvegicus [9] = test: Antidiabetic activity in Zucker diabetic fatty rat assessed as reduction in plasma glucose level at 3 mg/kg, po administered once daily for 14 days measured on day 15 relative to control; type: functional; set-up: scale not given: the % may be the effect or the level left
[10] = Apparent permeability of the compound after 4 hrs by PAMPA; type: ADME
[11] = Metabolic stability in rat liver microsomes after 0.5 hrs; type: ADME, microsome; settings: read-out: Stability
Hepatocyte [12] = test: Cytotoxicity against F344/DuCrlCrlj rat primary hepatocytes assessed as reduction in mitochondrial enzyme activity at 10 to 100 uM after 24 hrs by WST8 assay; type: cell-based
[13] = Cmax in cynomolgus monkey at 3 mg/kg, po by LC-MS/MS; type: ADME, organism-based, Macaca fascicularis; set-up: dose 3 mg/kg, route oral; settings: in vivo
[14] = Metabolic stability in cynomolgus monkey liver microsomes after 0.5 hrs; type: ADME, Macaca fascicularis, microsome; settings: read-out: Stability
[15] = Tmax in cynomolgus monkey at 3 mg/kg, po by LC-MS/MS; type: ADME, organism-based, Macaca fascicularis; settings: in vivo
[16] = Tmax in Zucker diabetic fatty rat at 3 mg/kg, po dosed once daily for 14 days and followed by additional administration on day 15; type: ADME, organism-based; settings: in vivo
[17] = Cmax in Zucker diabetic fatty rat at 3 mg/kg, po dosed once daily for 14 days and followed by additional administration on day 15; type: ADME, organism-based; set-up: dose 3 mg/kg, route oral; settings: in vivo
[18] = Aqueous thermodynamic solubility of the compound in pH 6.8 solution up to 4 hrs by HPLC-UV analysis; type: physicochemical; settings: read-out: Therm_solubility
[19] = target: T2, Peroxisome proliferator-activated receptor alpha (Homo sapiens, UniProt Q07869); test: Agonist activity at recombinant human GAL4-DBD fused PPARalpha LBD expressed in COS7 cells after 24 hrs by luciferase reporter gene assay; type: cell-based
T2 sequence (Q07869 whole entry): T1 sequence (whole entry)

[20] = 1-octanol/PBS distribution co-efficient, log D of the compound at […] at pH 7.4 after 30 mins by HPLC-MS/MS method; type: physicochemical
[21] = AUClast in cynomolgus monkey at 3 mg/kg, po by LC-MS/MS; type: ADME, organism-based, Macaca fascicularis; set-up: dose 3 mg/kg, time 0 - last, route oral; settings: in vivo
[22] = Clearance in cynomolgus monkey at 1 mg/kg, iv by LC-MS/MS; type: ADME, organism-based, Macaca fascicularis; settings: in vivo
[23] = target: T3, Peroxisome proliferator-activated receptor gamma (Homo sapiens) (UniProt P37231); test: Agonist activity at recombinant human GAL4-DBD fused PPARgamma LBD expressed in COS7 cells at 10 uM after 24 hrs by luciferase reporter gene assay relative to rosiglitazone; type: cell-based
T3 sequence (whole entry): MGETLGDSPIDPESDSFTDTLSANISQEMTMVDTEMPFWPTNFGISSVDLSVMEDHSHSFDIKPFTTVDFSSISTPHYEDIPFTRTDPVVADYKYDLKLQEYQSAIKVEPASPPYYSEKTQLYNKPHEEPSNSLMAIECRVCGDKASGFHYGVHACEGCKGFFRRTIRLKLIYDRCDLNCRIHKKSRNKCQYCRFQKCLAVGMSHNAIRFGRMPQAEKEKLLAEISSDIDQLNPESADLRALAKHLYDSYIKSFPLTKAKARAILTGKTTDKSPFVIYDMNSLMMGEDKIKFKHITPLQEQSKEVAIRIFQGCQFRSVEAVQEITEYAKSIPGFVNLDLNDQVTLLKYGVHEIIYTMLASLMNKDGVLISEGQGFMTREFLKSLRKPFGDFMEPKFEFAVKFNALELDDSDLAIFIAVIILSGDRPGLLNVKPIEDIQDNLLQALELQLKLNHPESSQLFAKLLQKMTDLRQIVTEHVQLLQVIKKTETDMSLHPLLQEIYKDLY

[24] = target: T4, Peroxisome proliferator-activated receptor gamma (Homo sapiens, UniProt P37231); test: Agonist activity at recombinant human GAL4-DBD fused PPARgamma LBD expressed in COS7 cells after 24 hrs by luciferase reporter gene assay; type: cell-based
T4 sequence (P37231 whole entry): T3 sequence (whole entry)

[25] = target: T5, Peroxisome proliferator-activated receptor delta (Homo sapiens) (UniProt Q03181); test: Agonist activity at PPARdelta (unknown origin) at 10 uM
T5 sequence (whole entry): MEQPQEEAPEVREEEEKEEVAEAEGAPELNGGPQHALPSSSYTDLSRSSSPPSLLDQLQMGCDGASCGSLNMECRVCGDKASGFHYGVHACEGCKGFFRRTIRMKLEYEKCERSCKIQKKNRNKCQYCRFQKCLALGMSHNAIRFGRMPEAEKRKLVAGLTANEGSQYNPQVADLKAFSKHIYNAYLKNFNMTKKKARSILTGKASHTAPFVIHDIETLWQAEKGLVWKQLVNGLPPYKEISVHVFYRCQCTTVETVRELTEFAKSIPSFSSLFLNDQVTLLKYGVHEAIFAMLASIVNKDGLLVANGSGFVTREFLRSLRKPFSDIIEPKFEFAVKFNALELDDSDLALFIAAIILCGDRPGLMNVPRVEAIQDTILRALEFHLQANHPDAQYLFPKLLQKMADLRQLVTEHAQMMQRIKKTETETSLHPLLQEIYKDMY

Rattus norvegicus [26] = test: Antidiabetic activity in Zucker diabetic fatty rat assessed as reduction in plasma glucose level administered orally once daily for 21 days measured on day 22; type: functional, organism-based

Row | Compound | Emax [1] [%] | remaining at 0.5 h [4] [%] | Vd [5] [L/kg] | bioavailability [6] [%] | AUC at 24 h [7] [ng·h/mL] | half-life [8] [h] | Papp at 4 h [10] [×10⁻⁶ cm/s] | remaining at 0.5 h [11] [%] | Cmax [13] [ng/mL] | remaining at 0.5 h [14] [%] | Tmax [15] [h] | Tmax [16] [h] | Cmax [17] [ng/mL] | solubility thermodynamic at 4 h [18] [µg/mL] | EC50 [19] [nM] | logD at 0.5 h [20] | AUC(0-t) [21] [ng·h/mL] | Emax [23] [%] | Activity (Rattus norvegicus [2]) [%] | Activity (Rattus norvegicus [9]) [%] | also measured
1 | Cc1cnc(Oc2ccc3nc(COc4cccc(C(=O)O)c4)n(C)c3c2)c(C)c1 [listing 1 of 2 here] |  |  | 0.36 | 89 | 2490 | 13.5 |  | 92 | 2250 | 80 | 5 | 3.2 | 180 |  |  | 1.4 | 23500 |  |  | 57 | clearance [22]: 2.06 mL/min/kg
2 | Cc1cc(Cl)cnc1Oc1ccc2nc(COc3cccc(C(=O)O)c3)n(C)c2c1 | 7 | 85 |  |  | 1250 |  | 13.7 | 81 |  |  |  | 2.4 | 120 | 3.9 (≈ 9.2 µM) | > 10000 | 1.8 |  | 92 | 18.5 | 54.1 | EC50 [24]: 21 nM
3 | Cn1c(COc2cccc(C(=O)O)c2)nc2ccc(Oc3ccc(Cl)cn3)cc21 | 3 | 100 |  |  | 1010 |  | 16.2 | 100 |  |  |  | 4.4 | 66 | 17 (≈ 41.5 µM) | > 10000 | 1.2 |  | 66 | 0.2 | 14.8 | EC50 [24]: 71 nM

Further lines, with some results ahead:

Row | Emax [1] [%] | remaining at 0.5 h [4] [%] | Vd [5] [L/kg] | bioavailability [6] [%] | AUC at 24 h [7] [ng·h/mL] | half-life [8] [h] | Papp at 4 h [10] [×10⁻⁶ cm/s] | remaining at 0.5 h [11] [%] | Cmax [13] [ng/mL] | remaining at 0.5 h [14] [%] | Tmax [15] [h] | Tmax [16] [h] | Cmax [17] [ng/mL] | solubility thermodynamic at 4 h [18] [µg/mL] | EC50 [19] [nM] | logD at 0.5 h [20] | AUC(0-t) [21] [ng·h/mL] | Emax [23] [%] | Compound | Activity (Rattus norvegicus [2]) [%] | Activity (Rattus norvegicus [9]) [%] | also measured
4 | 5 | 90 | 0.5 | 31 | 3910 | 8.84 | 11.8 | 87 | 1190 | 91 | 3.25 | 2 | 450 | 10 (≈ 23.4 µM) | > 10000 | 1.3 | 9940 | 79 | Cn1c(COc2cccc(C(=O)O)c2)nc2ccc(Oc3ncc(Cl)cc3F)cc21 | 13.8 | 70.6 | Activity (Hepatocyte [3]): Non-Toxic; Activity (Hepatocyte [12]): Non-Toxic; clearance [22]: 1.66 mL/min/kg
5 |  |  |  |  | 3610 |  |  |  |  |  |  | 2 | 420 |  |  |  |  |  | Cc1cnc(Oc2ccc3nc(COc4cccc(C(=O)[O-])c4)n(C)c3c2)c(F)c1.[Na+] | 10.8 | 65.7 | 
6 | 13 |  |  |  |  |  |  |  |  |  |  |  |  |  |  |  |  |  | Cc1cnc(Oc2ccc3nc(COc4cccc(C(=O)O)c4)n(C)c3c2)c(C)c1 [listing 2 of 2 here] |  |  | Activity [25]: inactive; Activity (Rattus norvegicus [26]): Dose-dependent effect
